From patent publication US20250034170A1, “SMALL MOLECULE MODULATORS OF GLUCOCEREBROSIDASE ACTIVITY AND USES THEREOF” (Vanqua Bio, Inc., priority 2021, published 2025)

Target: T1, GCase (Homo sapiens, UniProt P04062)
T1 construct: endogenous in cells; host or cells: HeLa cells
T1 sequence (P04062 40-536): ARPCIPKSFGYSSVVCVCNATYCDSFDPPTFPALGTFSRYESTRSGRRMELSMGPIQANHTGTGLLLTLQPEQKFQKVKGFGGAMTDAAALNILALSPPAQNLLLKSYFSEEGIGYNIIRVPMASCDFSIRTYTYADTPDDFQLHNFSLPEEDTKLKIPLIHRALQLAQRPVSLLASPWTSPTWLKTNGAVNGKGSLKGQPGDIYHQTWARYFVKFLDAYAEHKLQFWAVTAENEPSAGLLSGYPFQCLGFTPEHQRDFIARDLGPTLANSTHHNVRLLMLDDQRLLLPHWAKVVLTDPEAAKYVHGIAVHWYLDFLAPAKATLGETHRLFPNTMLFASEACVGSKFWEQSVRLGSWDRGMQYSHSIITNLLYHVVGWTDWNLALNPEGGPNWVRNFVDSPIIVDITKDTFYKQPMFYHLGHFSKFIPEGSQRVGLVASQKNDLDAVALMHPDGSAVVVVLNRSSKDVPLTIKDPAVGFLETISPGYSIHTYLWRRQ
Assay: activation of GCase in a live cell PFB assay in HELA cells
Format: cell-based
Method: Exemplary compounds were evaluated for activation of GCase in a live cell PFB assay in HELA cells (essentially as described in Ysselstein et al., “LRRK2 kinase activity regulates lysosomal glucocerebrosidase in neurons derived from Parkinson's disease patients” Nature Communications (2019) 10:5570). […] EC50 ranges: A: <10 μM; B: >10-50 μM; C: >50-100 μM; D: >100 μM.

[1] = activation of GCase, EC50 ranges

Compound	EC50 [1] [µM]	EC50 (EC50 given as range classes) [µM]
FC(F)Cn1ncc2ncc(N3CCC4(CCN(c5ccnc(C(F)(F)F)c5)CC4)C3)nc21 [Compound 155, 2-[1-(2,2-difluoroethyl)-1H-pyrazolo[3,4-b]pyrazin-6-yl]-8-[2-(trifluoromethyl)pyridin-4-yl]-2,8-diazaspiro[4.5]decane]	< 10	–
COc1nn(CC(F)F)c2nc(N3CCC4(CCN(c5cc(C)nc(C(F)(F)F)n5)C4)CC3)cnc12 [Cmpd 1098]	< 10	–
Cc1nc(N2CC3(CCN(c4cncc(-c5ccnn5CC(F)(F)F)n4)C3)C2)cc(C(F)(F)F)n1 [Cmpd 1121]	> 100	–
CCC1C(=O)N(c2cc(C(F)(F)F)ccn2)CC12CCN(c1cnc3cnn(CC(F)F)c3n1)CC2 (stereo not shown) [Compound 75, 8-(1-(2,2-difluoroethyl)-1H-pyrazolo[3,4-b]pyrazin-6-yl)-4-ethyl-2-(4-(trifluoromethyl)pyridin-2-yl)-2,8-diazaspiro[4.5]decan-3-one]	< 10	–
FC(F)Cn1ncc2ncc(N3CCC4(CN(Cc5ccc(C(F)(F)F)nc5)C4)C3)nc21 [Cmpd 320]	< 10	–
O=C1N(c2ccc(C(F)(F)F)cn2)CCC12CCN(c1cnc3cnn(CC(F)F)c3n1)C2 (stereo not shown) [Cmpd 202]	–	10 to 50
FC(F)(F)c1ccnc(N2CCC3(CC2)CCN(c2cncc(-c4nncs4)n2)C3)c1 [Compound 141, 2-[6-(1,3,4-thiadiazol-2-yl)pyrazin-2-yl]-8-[4-(trifluoromethyl)pyridin-2-yl]-2,8-diazaspiro[4.5]decane]	10 to 50	–
CCC1N(c2ccnc(C(F)(F)F)c2)C(=O)CC12CCN(c1cnc3cnn(CC(F)F)c3n1)CC2 (stereo not shown) [Cmpd 853]	10 to 50	–
FC(F)Cn1ncc2ncc(N3CCC4(CCCN(c5ccc(C(F)(F)F)nc5)C4)CC3)nc21 [Cmpd 214]	–	10 to 50
FC(F)(F)c1cc(N2CC3(CCN(c4cnc5cnn([C@@H]6CCOC6)c5n4)C3)C2)ccn1 [Cmpd 1091]	> 100	–
Cc1ccc(S(=O)(=O)N2CC3(CCN(c4cnc5cnn(CC(F)F)c5n4)C3)C2)cc1 [Cmpd 385]	–	10 to 50
Cc1cc(C(F)(F)F)ncc1N1CC2(CCN(c3cnc4cnn(CC(F)F)c4n3)CC2)CC1=O [Cmpd 778]	–	< 10
Cn1c(=O)n(CC(F)F)c2nc(N3CCC4(CN(c5ccnc(C(F)(F)F)c5)C4)C3)ncc21 [Cmpd 1142]	< 10	–
FC(F)Cn1ncc2ncc(N3CCC4(CC3)CN(c3ccc(C(F)(F)F)cn3)C4)nc21 [Compound 78, 7-[1-(2,2-difluoroethyl)-1H-pyrazolo[3,4-b]pyrazin-6-yl]-2-[5-(trifluoromethyl)pyridin-2-yl]-2,7-diazaspiro[3.5]nonane]	10 to 50	–
Cc1nc(N2CC3(CCN(c4ccc5c(C)nn(CC(F)F)c5n4)C3)C2)cc(C(F)(F)F)n1 [Cmpd 622]	–	10 to 50
CN(C)C(=O)c1cccc(N2CCC3(CCN(c4cnc5cnn(CC(F)F)c5n4)CC3)C2=O)n1 [Cmpd 671]	< 10	–
O=C1N(c2cncc(C(F)(F)F)n2)CCC12CCN(c1ncc3cnn(CC(F)F)c3n1)CC2 [Cmpd 287]	> 100	–
FC(F)(F)CCn1ncc2ncc(N3CCC4(CN(c5ccnc(C(F)(F)F)c5)C4)C3)nc21 [Cmpd 1033]	–	< 10
FC(F)Cn1ncc2ncc(N3CCC4(CN(c5ccnc(OC(F)(F)F)c5)C4)C3)nc21 [Cmpd 411]	–	10 to 50
CCn1c(-c2cncc(F)c2)nc2nc(N3CCC4(CN(c5ccnc(C(F)(F)F)c5)C4)C3)cnc21 [Cmpd 1045]	50 to 100	–
O=C1N(c2ccc(C(F)(F)F)nc2)C(=O)C2(CCN(c3cnc4cnn(CC(F)F)c4n3)CC2)N1CC(F)F [Cmpd 876]	10 to 50	–
FC(F)Cn1ncc2ncc(N3CCC4(CCN(c5cncc(C(F)(F)F)c5)CC4)C3)nc21 [Compound 153, 2-[1-(2,2-difluoroethyl)-1H-pyrazolo[3,4-b]pyrazin-6-yl]-8-[5-(trifluoromethyl)pyridin-3-yl]-2,8-diazaspiro[4.5]decane]	< 10	–

Compound	EC50 [1] [µM]	EC50 (EC50 given as range classes) [µM]
Cc1nc(N2CC3(CCN(c4cncc(-c5ccn(CC(F)F)n5)n4)C3)C2)cc(C(F)(F)F)n1 [Cmpd 1118]	> 100	–
CC[C@@H]1N(c2ccnc(C(F)(F)F)c2)C(=O)CC12CCN(c1cnc3cnn(CC(F)F)c3n1)CC2 [Cmpd 855]	10 to 50	–
FC(F)(F)c1ncc(N2CC3(CCN(c4cncc(-c5nncs5)n4)C3)C2)cn1 [Cmpd 430]	–	< 10
O=C1N(c2cnc(C(F)(F)F)nc2)CCC12CCN(c1cnc3cnn(CC(F)F)c3n1)CC2 [Cmpd 306]	10 to 50	–
FC(F)(F)Cn1ncc2cnc(N3CCC4(CN(c5ccnc(C(F)(F)F)c5)C4)C3)nc21 [Cmpd 424]	–	< 10
FC(F)Cn1ncc2ncc(N3CCC4(CC3)CC(Nc3cncc(C(F)(F)F)c3)C4)nc21 [Cmpd 228]	–	> 100
FC(F)Cn1ncc2ncc(N3CC4(CCN(c5ccnc(C(F)(F)F)c5)CC4)C3)nc21 [Compound 117, 2-[1-(2,2-difluoroethyl)-1H-pyrazolo[3,4-b]pyrazin-6-yl]-7-[2-(trifluoromethyl)pyridin-4-yl]-2,7-diazaspiro[3.5]nonane]	< 10	–
CCn1c(=O)n(C2COC2)c2ncc(N3CCC4(CN(c5ccnc(C(F)(F)F)c5)C4)C3)nc21 [Cmpd 982]	–	10 to 50
FC(F)Cn1ncc2ncc(N3CCC4(CC3)CC(Oc3cnccc3C(F)(F)F)C4)nc21 [Cmpd 707]	10 to 50	–
FC(F)Cn1ncc2ncc(N3CCC4(CC3)CN(c3ncccc3C(F)(F)F)C4)nc21 [Compound 79, 7-[1-(2,2-difluoroethyl)-1H-pyrazolo[3,4-b]pyrazin-6-yl]-2-[3-(trifluoromethyl)pyridin-2-yl]-2,7-diazaspiro[3.5]nonane]	< 10	–
O=C(Cc1csc(-c2ccccc2)n1)N1CC2(CCCN(c3ccccc3)C2)C1 [Compound 58, 2-(2-phenyl-1,3-thiazol-4-yl)-1-{6-phenyl-2,6-diazaspiro[3.5]nonan-2-yl}ethan-1-one]	10 to 50	–
O=C1N(c2cnc3cnn(CC(F)F)c3n2)CCCC12CN(c1ccc(C(F)(F)F)nc1)C2 [Cmpd 342]	> 100	–
CCn1cc(N2CCC3(CCN(c4cnc5cnn(CC(F)F)c5n4)CC3)C2=O)ccc1=O [Cmpd 846]	10 to 50	–
FC(F)Cn1ncc2ncc(N3CCC4(CN(c5cnc(C(F)F)nc5)C4)C3)nc21 [Cmpd 958]	< 10	–
CCOc1ncc(N2CCC3(CCN(c4cnc5cnn(CC(F)F)c5n4)CC3)C2)cn1 [Cmpd 763]	< 10	–
FC(F)(F)c1ccc(N2CCC3(CCN(c4cncc(-n5ccnc5)n4)CC3)C2)cn1 [Cmpd 238]	10 to 50	–
Cc1nn(C2COC2)c2nc(N3CCC4(CN(c5ccnc(C(F)(F)F)c5)C4)C3)cnc12 [Cmpd 931]	10 to 50	–
FC(F)Cn1ncc2ncc(N3CCCC4(CC(Oc5ncccc5C(F)(F)F)C4)C3)nc21 (stereo not shown) [Compound 32, 6-[1-(2,2-difluoroethyl)-1H-pyrazolo[3,4-b]pyrazin-6-yl]-2-{[3-(trifluoromethyl)pyridin-2-yl]oxy}-6-azaspiro[3.5]nonane]	10 to 50	–
O=C1CC2(CCN1c1ccc(C(F)(F)F)nc1)CN(c1cnc3cnn(CC(F)F)c3n1)C2 [Cmpd 910]	10 to 50	–
Cc1cnc(C(F)(F)F)nc1N1CCC2(CCN(c3cnc4cnn(CC(F)F)c4n3)CC2)C1=O [Cmpd 842]	10 to 50	–
FC(F)Cn1ncc2ncc(N3CCCC4(CC(Oc5cccnc5C(F)(F)F)C4)C3)nc21 (stereo not shown) [Compound 4, 6-[1-(2,2-Difluoroethyl)-1H-pyrazolo[3,4-b]pyrazin-6-yl]-2-{[2-(trifluoromethyl)pyridin-3-yl]oxy}-6-azaspiro[3.5]nonane]	< 10	–
